Assay results taken from patent US20120322890A1, “Inhibition of the Survival of Bone Cancer by Cyclohexenone Compounds from Antrodia Camphorata” (Golden Biotechnology Corporation, priority 2009, published 2012).

Tested on: bone cancer cell line MG-63
Assay: In vitro survival assay (MTT) for inhibition of bone cancer cells
Format: cell-based
Conditions: Homo sapiens, MG-63 cells, 48 hours treatment, absorbance at 570 nm, read-out: IC50 (half inhibition concentration), survival of bone cancer cells
Protocol: Inhibiting effects of bone cancer cells by cyclohexenone compounds of Antrodia camphorata from example 1 were assessed according to the anticancer-drug screening model of National Cancer Institute (NCI). The compound 4-hydroxy-2,3-dimethoxy-6-methyl-5-(3,7,11-trimethyl-dodeca-2,6,10-trienyl)-cyclohex-2-enone from example 1 was added into the culture media of bone cancer cell line MG-63 to determine the survival rates. Survival of cell was analyzed using MTT assay. MG-63 cell line was an osteoblast-like fibroblast cell line and derived from human osteosarcoma, which had similar cell type and feature with osteoblast.
MTT assay is commonly used to analyze cell proliferation, survival rate of viable cells and cytotoxicity. MTT (3[4,5-dimethylthiazol-2-yl]-2,5-diphenyltetrazolium bromide) is a yellow dye which can be converted to water-insoluble purple formazan on the reductive cleavage of its tetrazolium ring by the succinate tetrazolium reductase in mitochondria of cells. The amount of formazan produced is used to detect the number of viable cells and calculate the survival rates.
The MG-63 cells were cultivated in Dulbecco's modified Eagle's medium (DMEM) supplemented with 10% fetal bovine serum, 100 IU/ml of Penicillin and […] of Streptomycin at 37° C., 5% CO2 for 24 hours. […] The absorbances were measured at 570 nm with an ELISA Reader to determine the survival rates.

COC1=C(OC)C(O)C(C/C=C(\C)CC/C=C(\C)CCC=C(C)C)C(C)C1=O (stereo not shown) [formula 2, 4-hydroxy-2,3-dimethoxy-6-methyl-5-(3,7,11-trimethyl-dodeca-2,6,10-trienyl)-cyclohex-2-enone]
IC50: 2.09 µg/mL
